Data reported in patent US9493833B1, “Methods for preventing induced synthesis of proteasomes in human cells” (THE REGENTS OF THE UNIVERSITY OF CALIFORNIA, priority 2009, dated 2016).
Where a SMILES comes first, the peptide text is derived from it. The star is where a group is joined. Cbz = O=C(OCc1ccccc1)*; CH2F = FC*

Tests used:
[1] = tested on: PSM genes (PSMA7, PSMB4, PSMB7, PSMC1, PSMC4, PSMD1, PSMD12); assay: mRNA levels of representative PSM genes by quantitative RT-PCR in LNCaP and HT-29 cells treated with proteasome inhibitors or MLN4924; assay type: cell-based, human; settings: 10 hrs, normalized to GAPDH, DMSO set to 1
Experimental: (§1) The human prostate cancer LNCaP and colon cancer HT29 cell lines were incubated with different proteasome inhibitors (MG132, YU101, and bortezomib) or the Nedd8 pathway inhibitor MLN4924 (Soucy et al., 2009, Nature, 458, 732-736). Prostate cancer LNCaP and colon cancer HT-29 cells were treated with the indicated concentrations of proteasome inhibitors (MG132, YU101, and Bortezomib) or the Nedd8 pathway inhibitor (MLN4924) for 10 hrs, and mRNA levels of representative PSM genes were analyzed by quantitative RT-PCR (FIGS. 1A-1C). The values were normalized to GAPDH and for each cell line the DMSO treated sample was set to 1. Error bars denote SD (n=3). […] MLN4924 works by inhibiting the Nedd8-activating enzyme, the result of which is the accumulation of cullin-RING ligase (CRL) substrates (Soucy et al., 2009).
(§2) RNA was isolated using the RNeasy kit (Qiagen). cDNA was prepared using the Superscript III first strand synthesis kit (Invitrogen) according to the manufacturer's recommendations. Quantitative PCR (qPCR) was performed using the SYBR GreenER supermix (Invitrogen).

NQO1 = NQO1 mRNA level by quantitative RT-PCR in LNCaP and HT-29 cells; assay type: cell-based, human; settings: 10 hrs, same treatment conditions
Experimental: as §1, §2

cleaved caspase-3 = assay: Immunoblot of cleaved caspase-3 in MDA-MB-231 and U2OS cells; assay type: cell-based, human; settings: Nrf1-depleted cells; YU101 48 hrs (MDA-MB-231) or 24 hrs (U2OS)
Experimental: (§3) HT29 cells were treated with either MG132 (2 μM), YU101 (100 nM) or Bortezomib (40 nM) for 1 hr after which the drugs were washed off and the cells were allowed to recover in the absence or presence of 50 μg/ml cycloheximide (CHX) (FIG. 11A). Cells were frozen at different time points as indicated and were used for proteasome activity assays as described herein. For each time point, the results are normalized to DMSO-treated control in the case of hatched lines and to CHX-treated control in the case of solid lines. Error bars denote SD (n=3). WT and Nrf1^−/− MEFs were treated with either MG132 (50 μM) or YU101 (300 nM) for an hour after which the drugs were washed off and proteasome activity was measured for cells collected at different time points as indicated (FIG. 11A). […] The results were normalized to DMSO-treated control for each cell type. Error bars denote S.E.M. (n=2). MDA-MB-231 and U2OS cells were transduced with retrovirus expressing either sh-Nrf1 or vector control, and 48 hrs later were seeded in to 96-well plates. The next day, the cells were treated with indicated concentrations of YU101 and the pan-caspase inhibitor Z-VAD-FMK, and further incubated for 72 hrs. The cell viability was then assessed using the CellTiter-Glo method (FIG. 12A). The results were normalized to DMSO-treated control which was set to 100% in each case. Error bars denote S.E.M. (n=2). […]

proteasome = target: T1, proteasome (Mus musculus, UniProt O09061+O55234); assay: Proteasome activity recovery assay in WT and Nrf1−/− MEFs; assay type: cell-based; settings: YU101 300 nM 1 hr then wash-off, single-phase exponential curve fit
T1 construct: endogenous in cells; host or cells: WT and Nrf1-/- mouse embryonic fibroblasts, immortalized with shRNA against p19ARF
Experimental: Cells were frozen at different time points as indicated and were used for proteasome activity assays as described herein. For each time point, the results are normalized to DMSO-treated control in the case of hatched lines and to CHX-treated control in the case of solid lines. Error bars denote SD (n=3). […] The results were normalized to DMSO-treated control for each cell type. Error bars denote S.E.M. (n=2). […] The next day, the cells were treated with indicated concentrations of YU101 and the pan-caspase inhibitor Z-VAD-FMK, and further incubated for 72 hrs. The cell viability was then assessed using the CellTiter-Glo method (FIG. 12A). The results were normalized to DMSO-treated control which was set to 100% in each case. Error bars denote S.E.M. (n=2). […] The cell lysates were used for immunoblotting to detect the levels of Nrf1 (with the antibody raised against N-terminus) and cleaved caspase-3. β-actin protein levels were used as loading control. […] The cells were then washed with PBS thrice and allowed to recover in fresh medium. At definite time points, the cells were freeze-thawed in TE buffer (20 mM Tris pH 8, 5 mM EDTA) and subsequently used for measuring proteasome activity as described previously (Demo et al., 2007).

[2] = tested on: MDA-MB-231 and U2OS cells; assay: CellTiter-Glo cell viability with YU101, sh-Nrf1 and Z-VAD-FMK; assay type: cell-based, human; settings: 72 hrs
Experimental: as §3, with “MDA-MB-231 and U2OS cells were transduced with retrovirus expressing either sh-Nrf1 or vector control, and 48 hrs later were seeded in to 96-well plates. The next day, the cells were treated with indicated concentrations of YU101 and the pan-caspase inhibitor Z-VAD-FMK, and further incubated for 72 hrs.” left out, “12A).” for “12A). The results were normalized to DMSO-treated control which was set to 100% in each case. Error bars denote S.E.M. (n=2).”
Cells in 96-well plates were treated with different agents as required and cell viability was assessed using the Cell-Titer Glo kit (G7572; Promega) according to the protocol recommended by the manufacturer. By employing a luminescence read-out, this kit quantifies the level of ATP which is proportional to the number of viable cells.

Compound: NS(=O)(=O)OC[C@@H]1C[C@@H](n2ccc3c(N[C@H]4CCc5ccccc54)ncnc32)C[C@@H]1O [MLN4924]
- mRNA levels of PSM genes [1]: failed to appreciably induce the PSM genes
- NQO1 mRNA (Nrf2 target gene) (NQO1): activation of its downstream target genes, as observed for NQO1

Compound: CC(=O)NC(CCc1ccccc1)C(=O)NC(CC(C)C)C(=O)NC(Cc1ccccc1)C(=O)NC(CC(C)C)C(=O)C1(C)CO1 (stereo not shown) [YU101]
- mRNA levels of PSM genes [1]: robustly induce mRNA levels of several PSM genes
- level of cleaved caspase-3 (cleaved caspase-3): elicited an enhanced level of cleaved caspase-3
- time taken to recover half of the inhibited activity (proteasome; Nrf1−/− MEFs): 15.96 ± 5.49 h
- time taken to recover half of the inhibited activity (proteasome; WT MEFs): 6.92 ± 1.64 h

Compound: COC(=O)C[C@H](NC(=O)[C@H](C)NC(=O)[C@@H](NC(=O)OCc1ccccc1)C(C)C)C(=O)CF [Z-VAD-FMK] (Cbz-Val-Ala-Asp(OMe)-CH2F)
- effect of co-treatment on sensitization to YU101 killing [2]: this effect was blunted
